Data as given in ChEMBL document CHEMBL4002630, “The design and synthesis of novel spirocyclic heterocyclic sulfone ROMK inhibitors as diuretics” (Bioorg Med Chem Lett, 2017).

target: T1, ATP-sensitive inward rectifier potassium channel 1 (Rattus norvegicus, UniProt P35560); assay: Inhibition of rat ROMK expressed in HEK293 cells after 30 mins by thallium flux assay; type: cell-based; conditions: not given
T1 sequence (P35560 whole entry): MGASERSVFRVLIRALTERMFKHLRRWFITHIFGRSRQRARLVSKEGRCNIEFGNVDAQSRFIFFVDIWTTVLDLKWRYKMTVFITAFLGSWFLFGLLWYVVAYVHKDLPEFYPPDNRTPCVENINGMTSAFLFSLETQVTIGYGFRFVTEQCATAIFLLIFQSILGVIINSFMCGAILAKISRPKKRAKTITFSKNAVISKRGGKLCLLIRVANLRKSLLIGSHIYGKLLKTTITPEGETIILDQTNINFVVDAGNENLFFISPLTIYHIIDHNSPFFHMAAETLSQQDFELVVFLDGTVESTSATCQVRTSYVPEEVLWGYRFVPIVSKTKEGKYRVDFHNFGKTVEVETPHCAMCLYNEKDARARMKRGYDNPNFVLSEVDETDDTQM

IC50 [nM] | Structure (SMILES)
40 | Cc1c([C@@H](O)CN2CCC3(CC2)CC(=O)N(c2ccc(S(C)(=O)=O)cn2)C3)ccc2c1COC2=O

system: not listed separately; assay: in vivo; conditions: rat, iv, 0.5 mg/kg

Vd [L/kg] | Structure (SMILES)
4.7 | Cc1c([C@@H](O)CN2CCC3(CC2)CCN(c2ccc(C#N)cn2)C3)ccc2c1COC2=O
4.3 | Cc1c([C@@H](O)CN2CCC3(CC2)CC(=O)N(c2ccc(S(C)(=O)=O)cn2)C3)ccc2c1COC2=O

target: T2, Voltage-gated inwardly rectifying potassium channel KCNH2 (Homo sapiens, UniProt Q12809); assay: not given; conditions: not given
T2 sequence (Q12809 whole entry): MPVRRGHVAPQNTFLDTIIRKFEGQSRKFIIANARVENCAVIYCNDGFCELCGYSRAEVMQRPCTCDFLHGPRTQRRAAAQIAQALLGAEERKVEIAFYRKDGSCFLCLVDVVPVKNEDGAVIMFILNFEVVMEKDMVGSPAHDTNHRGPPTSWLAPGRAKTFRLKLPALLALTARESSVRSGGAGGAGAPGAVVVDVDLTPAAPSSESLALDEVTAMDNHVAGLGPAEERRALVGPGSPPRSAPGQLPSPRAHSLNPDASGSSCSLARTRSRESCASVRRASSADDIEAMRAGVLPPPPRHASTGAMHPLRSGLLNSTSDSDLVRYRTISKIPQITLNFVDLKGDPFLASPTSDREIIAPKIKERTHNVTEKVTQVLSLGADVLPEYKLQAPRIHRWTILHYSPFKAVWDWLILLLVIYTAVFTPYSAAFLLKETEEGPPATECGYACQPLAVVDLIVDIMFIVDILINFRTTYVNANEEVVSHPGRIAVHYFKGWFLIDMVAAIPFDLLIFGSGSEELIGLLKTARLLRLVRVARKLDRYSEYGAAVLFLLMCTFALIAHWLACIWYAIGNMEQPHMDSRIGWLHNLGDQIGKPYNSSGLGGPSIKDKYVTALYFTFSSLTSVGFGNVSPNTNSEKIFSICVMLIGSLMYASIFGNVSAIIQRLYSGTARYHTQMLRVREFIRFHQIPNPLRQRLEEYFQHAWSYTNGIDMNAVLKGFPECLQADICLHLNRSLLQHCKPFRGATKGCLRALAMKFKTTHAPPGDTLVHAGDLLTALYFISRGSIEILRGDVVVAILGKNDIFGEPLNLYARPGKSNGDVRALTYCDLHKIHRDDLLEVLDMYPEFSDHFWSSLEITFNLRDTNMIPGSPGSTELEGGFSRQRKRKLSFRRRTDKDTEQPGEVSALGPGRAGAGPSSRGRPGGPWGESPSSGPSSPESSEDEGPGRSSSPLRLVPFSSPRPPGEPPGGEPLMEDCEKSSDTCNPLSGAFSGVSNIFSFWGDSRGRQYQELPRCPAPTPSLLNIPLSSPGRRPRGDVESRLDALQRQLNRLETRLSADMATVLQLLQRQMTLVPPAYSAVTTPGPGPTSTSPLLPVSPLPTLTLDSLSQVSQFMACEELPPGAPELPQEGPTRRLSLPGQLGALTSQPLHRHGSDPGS

Structure (SMILES) | IC50 [µM]
Cc1c([C@@H](O)CN2CCC3(CC2)CC(=O)N(c2cncc(C#N)c2)C3)ccc2c1COC2=O | 1.8
Cc1nc(N2CCC3(CCN(C[C@H](O)c4ccc5c(c4C)COC5=O)CC3)C2)ccc1S(C)(=O)=O | 7.9
COc1ccc(N2CCC3(CCN(C[C@H](O)c4ccc5c(c4C)COC5=O)CC3)C2)cn1 | 3.3
Cc1c([C@@H](O)CN2CCC3(CC2)CC(=O)N(c2ccc(S(C)(=O)=O)cn2)C3)ccc2c1COC2=O | 17.4

system: Rattus norvegicus; assay: Antihypertensive activity in rat spontaneous hypertensive model assessed as change in systolic blood pressure at 3 mg/kg, po measured after 3 days; type: functional; conditions: not given

Structure (SMILES) | Activity [mmHg]
Cc1c([C@@H](O)CN2CCC3(CC2)CC(=O)N(c2ccc(S(C)(=O)=O)cn2)C3)ccc2c1COC2=O | -15.5

system: not listed separately; assay: in vivo; conditions: rat, po, 1 mg/kg

bioavailability [%] | Structure (SMILES)
100 | Cc1c([C@@H](O)CN2CCC3(CC2)CCN(c2ccc(C#N)cn2)C3)ccc2c1COC2=O
48 | Cc1c([C@@H](O)CN2CCC3(CC2)CC(=O)N(c2ccc(S(C)(=O)=O)cn2)C3)ccc2c1COC2=O

species: Rattus norvegicus; assay: not given; conditions: in vivo, iv, 0.5 mg/kg

clearance [mL/min/kg] | Structure (SMILES)
19.3 | Cc1c([C@@H](O)CN2CCC3(CC2)CCN(c2ccc(C#N)cn2)C3)ccc2c1COC2=O
34 | Cc1c([C@@H](O)CN2CCC3(CC2)CC(=O)N(c2ccc(S(C)(=O)=O)cn2)C3)ccc2c1COC2=O

target: T3, ATP-sensitive inward rectifier potassium channel 1 (Homo sapiens, UniProt P48048); assay: Inhibition of human ROMK expressed in CHO cells by electrophysiology method; type: cell-based; conditions: not given
T3 sequence (P48048 whole entry): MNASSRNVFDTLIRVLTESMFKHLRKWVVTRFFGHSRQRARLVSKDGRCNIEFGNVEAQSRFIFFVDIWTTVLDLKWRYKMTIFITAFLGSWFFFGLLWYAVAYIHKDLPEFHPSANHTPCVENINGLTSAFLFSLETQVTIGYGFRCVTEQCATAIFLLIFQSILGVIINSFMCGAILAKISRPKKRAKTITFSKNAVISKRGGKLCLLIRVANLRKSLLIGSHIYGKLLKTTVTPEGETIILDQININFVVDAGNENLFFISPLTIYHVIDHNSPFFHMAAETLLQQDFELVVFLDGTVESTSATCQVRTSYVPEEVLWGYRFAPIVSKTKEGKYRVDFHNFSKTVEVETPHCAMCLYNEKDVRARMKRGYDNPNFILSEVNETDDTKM

IC50 [nM] | Structure (SMILES)
43 | Cc1c([C@@H](O)CN2CCC3(CC2)CC(=O)N(c2ccc(S(C)(=O)=O)cn2)C3)ccc2c1COC2=O

target: T3, ATP-sensitive inward rectifier potassium channel 1; assay: Inhibition of human ROMK expressed in HEK293 cells after 30 mins by thallium flux assay; type: cell-based; conditions: read-out: IC50

IC50 [nM] | Structure (SMILES)
10 | Cc1c([C@@H](O)CN2CCC3(CC2)CC(=O)N(c2cncc(C#N)c2)C3)ccc2c1COC2=O
1000 | COc1ccc(N2CCC3(CCN(C[C@H](O)c4ccc5c(c4C)COC5=O)CC3)C2)cn1

target: T2, Voltage-gated inwardly rectifying potassium channel KCNH2; assay: Inhibition of human ERG by electrophysiology method; conditions: not given

Structure (SMILES) | IC50 [µM]
Cc1c([C@@H](O)CN2CCC3(CC2)CC(=O)N(c2ccc(S(C)(=O)=O)cn2)C3)ccc2c1COC2=O | 24

system: not listed separately; assay: in vivo; conditions: rat, po, 1 mg/kg; remark: another data set of the same source

fraction unbound | Structure (SMILES)
0.27 | Cc1c([C@@H](O)CN2CCC3(CC2)CCN(c2ccc(C#N)cn2)C3)ccc2c1COC2=O

species: Homo sapiens; assay: Selectivity ratio of IC50 for human ERG to IC50 for human ROMK expressed in CHO cells by electrophysiology method; type: cell-based; conditions: not given

Structure (SMILES) | Ratio IC50
Cc1c([C@@H](O)CN2CCC3(CC2)CC(=O)N(c2ccc(S(C)(=O)=O)cn2)C3)ccc2c1COC2=O | 558

system: not listed separately; assay: Drug uptake in plasma of rat spontaneous hypertensive model at 3 mg/kg, po measured after 3 days; type: ADME, organism-based; conditions: spontaneously hypertensive rat

concentration at 72 h [nM] | Structure (SMILES)
220 | Cc1c([C@@H](O)CN2CCC3(CC2)CC(=O)N(c2ccc(S(C)(=O)=O)cn2)C3)ccc2c1COC2=O

species: Rattus norvegicus; assay: not given; conditions: in vivo, po, 1 mg/kg

AUC/dose [µM·kg·h/mg] | Structure (SMILES)
2 | Cc1c([C@@H](O)CN2CCC3(CC2)CCN(c2ccc(C#N)cn2)C3)ccc2c1COC2=O
0.5 | Cc1c([C@@H](O)CN2CCC3(CC2)CC(=O)N(c2ccc(S(C)(=O)=O)cn2)C3)ccc2c1COC2=O

system: not listed separately; assay: in vivo; conditions: rat

half-life [min] | Structure (SMILES)
180 | Cc1c([C@@H](O)CN2CCC3(CC2)CCN(c2ccc(C#N)cn2)C3)ccc2c1COC2=O
126 | Cc1c([C@@H](O)CN2CCC3(CC2)CC(=O)N(c2ccc(S(C)(=O)=O)cn2)C3)ccc2c1COC2=O

species: Homo sapiens; assay: Selectivity ratio of IC50 for human ERG expressed in HEK293 cells to IC50 for human ROMK expressed in HEK293 cells; type: cell-based; conditions: not given

Structure (SMILES) | Ratio IC50
Cc1c([C@@H](O)CN2CCC3(CC2)CC(=O)N(c2cncc(C#N)c2)C3)ccc2c1COC2=O | 180
Cc1nc(N2CCC3(CCN(C[C@H](O)c4ccc5c(c4C)COC5=O)CC3)C2)ccc1S(C)(=O)=O | 101
COc1ccc(N2CCC3(CCN(C[C@H](O)c4ccc5c(c4C)COC5=O)CC3)C2)cn1 | 303
Cc1c([C@@H](O)CN2CCC3(CC2)CC(=O)N(c2ccc(S(C)(=O)=O)cn2)C3)ccc2c1COC2=O | 328
